According to ChEMBL document CHEMBL1149020, “Sesterterpenes from a common marine sponge, Hyrtios erecta” (1986):

Species: Mus musculus
Assay: Antiinflammatory activity against PMA-induced ear inflammation in mouse assessed as decrease in ear weight at 50 ug/ear
Type: functional
Design: scale not given: the % may be the effect or the level left

Structure (SMILES): CC(=O)O[C@@H]1C[C@H]2[C@@](C)(CC[C@H]3C(C)(C)CCC[C@]23C)[C@@H]2CC=C(C=O)C[C@]21C [HYRTIAL]
- Activity: 43%
